The test system of data set [1] is E. faecalis RDK 057. Particulars: cited from earlier work.
Data set [2] has as its system P. aeruginosa RDK 184. Particulars: cited from earlier work.
The subject of data set [3] is E. coli (ATCC 25922). The following applies: cited from earlier work.
The subject of data set [4] is VRE. Particulars: cited from earlier work.
Data set [5] has as its target T1, S. aureus DNA gyrase (Staphylococcus aureus, UniProt P20831).
T1 construct: purchased Inspiralis (Norwich, UK)
The following applies: supercoiling inhibition; cited from earlier work.

Data set [6] deals with S. aureus (ATCC 29213). Particulars: cited from earlier work.
The test system of data set [7] is E. coli N43 (CGSC# 5583). Particulars: AcrA knockout; cited from earlier work.
Data set [8] deals with T2, human topoisomerase IIα (Homo sapiens, UniProt P11388).
T2 construct: purchased Inspiralis (Norwich, UK)
T2 sequence (P11388 whole entry): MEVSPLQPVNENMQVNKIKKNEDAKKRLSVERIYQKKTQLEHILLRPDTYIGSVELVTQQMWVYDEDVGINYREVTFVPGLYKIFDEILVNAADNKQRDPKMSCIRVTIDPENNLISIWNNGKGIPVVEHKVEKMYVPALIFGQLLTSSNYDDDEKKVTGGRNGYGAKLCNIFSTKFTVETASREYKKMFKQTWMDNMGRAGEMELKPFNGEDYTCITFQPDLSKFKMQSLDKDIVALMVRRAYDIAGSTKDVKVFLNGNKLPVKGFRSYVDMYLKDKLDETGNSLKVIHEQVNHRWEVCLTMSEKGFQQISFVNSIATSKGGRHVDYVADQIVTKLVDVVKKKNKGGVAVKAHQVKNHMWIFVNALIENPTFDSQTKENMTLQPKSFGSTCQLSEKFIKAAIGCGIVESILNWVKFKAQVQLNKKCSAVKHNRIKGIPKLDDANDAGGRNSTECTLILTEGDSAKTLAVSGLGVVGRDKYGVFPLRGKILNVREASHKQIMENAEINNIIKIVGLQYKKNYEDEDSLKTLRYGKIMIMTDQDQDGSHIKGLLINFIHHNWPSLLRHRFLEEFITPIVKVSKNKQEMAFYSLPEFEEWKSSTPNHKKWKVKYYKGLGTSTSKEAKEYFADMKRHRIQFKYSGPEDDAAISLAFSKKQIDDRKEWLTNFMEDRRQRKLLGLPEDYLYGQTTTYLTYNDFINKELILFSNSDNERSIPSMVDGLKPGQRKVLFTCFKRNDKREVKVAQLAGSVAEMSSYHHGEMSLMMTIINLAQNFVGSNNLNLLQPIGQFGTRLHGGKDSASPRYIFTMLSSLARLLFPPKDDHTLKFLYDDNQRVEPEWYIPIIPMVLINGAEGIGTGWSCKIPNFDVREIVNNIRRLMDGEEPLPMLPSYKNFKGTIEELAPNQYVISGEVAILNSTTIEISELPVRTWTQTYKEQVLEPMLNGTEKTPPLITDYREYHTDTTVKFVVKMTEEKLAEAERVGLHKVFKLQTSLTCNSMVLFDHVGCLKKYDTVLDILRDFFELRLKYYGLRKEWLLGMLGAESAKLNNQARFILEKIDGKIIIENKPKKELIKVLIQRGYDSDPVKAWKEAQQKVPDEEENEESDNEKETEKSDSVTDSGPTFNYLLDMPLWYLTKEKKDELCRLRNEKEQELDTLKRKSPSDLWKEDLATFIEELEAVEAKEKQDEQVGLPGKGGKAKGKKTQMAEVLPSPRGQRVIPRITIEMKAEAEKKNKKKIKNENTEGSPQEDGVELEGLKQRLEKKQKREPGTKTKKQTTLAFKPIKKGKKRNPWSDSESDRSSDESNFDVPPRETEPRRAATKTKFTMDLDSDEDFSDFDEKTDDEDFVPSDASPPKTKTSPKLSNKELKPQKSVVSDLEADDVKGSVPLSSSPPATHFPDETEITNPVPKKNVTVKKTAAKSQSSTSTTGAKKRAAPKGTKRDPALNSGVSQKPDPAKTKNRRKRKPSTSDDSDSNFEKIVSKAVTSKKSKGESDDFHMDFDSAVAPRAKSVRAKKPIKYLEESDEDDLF
Particulars: residual activity at 100 µM compound; cited from earlier work.

The test system of data set [9] is E. coli D22. The following applies: lpxC mutation; cited from earlier work.
The subject of data set [10] is MRSA (QA-11.7). The following applies: cited from earlier work.
A further data set addresses T3, E. coli DNA gyrase (Escherichia coli, UniProt P0AES4).
T3 construct: purchased Inspiralis (Norwich, UK)
The data set can be described thus: DNA gyrase supercoiling inhibition assay (high-throughput plate assay). It counts as biochemical. The procedure:
(§1) To determine the IC50 values of the compounds for S. aureus and E. coli, a DNA gyrase supercoiling high-throughput plate assay and a topoIV relaxation high-throughput plate assay were performed. Assay kits and black streptavidin-coated 96-well microtiter plates are available from Inspiralis (Norwich, UK). For pre-screening, an inhibitor concentration of 100 μM was used. […] A nonlinear regression-based fit of the inhibition curves was used, with the log [inhibitor] versus slope of the reaction variables (four parameters) and a symmetric equation. […] To determine IC50 values, two independent repetitions were performed and the average was calculated.

Data set [11] can be described thus: Metabolic activity assessment (cytotoxicity), CellTiter 96 Aqueous One. The data set is classed as cell-based. Particulars: human, HepG2 cells (ATCC HB-8065); 72 h treatment; means of three independent measurements ± SD. The procedure: HUVEC (ATCC® CRL-1730™) and HepG2 (ATCC® HB-8065™) cell lines were cultured in Dulbecco’s Modified Eagle Medium (DMEM; Sigma-Aldrich, St. Louis, MO, USA) supplemented with 10% heat-deactivated FBS (Gibco, Grand Island, NE, USA), 2 mM L-glutamine, 100 U/mL penicillin, 100 μg/mL streptomycin (all from Sigma-Aldrich, St. Louis, MO, USA) in a humidified chamber at 37 °C and 5% CO2. The experiments were carried out on passages 4–7 for both cell lines. The tested compounds were dissolved in DMSO and further diluted in culture medium to a desired final concentration. The cells were then seeded into 96-well plates at 5 × 10^4 cells/mL (100 μL/well) or 8 × 10^4 cells/mL (100 μL/well) for HUVEC and HepG2, respectively. The cells were then incubated for 24 h to allow attachment onto the wells. The cells were treated with 1 μM and 50 μM of each compound of interest, or the corresponding vehicle as control. […] Their metabolic activity was assessed after 72 h treatment using a CellTiter 96 Aqueous One Solution Cell Proliferation Assay (Promega, Madison, WI, USA), in accordance with the manufacturer’s instructions. The absorbance was measured at 492 nm on an automated microplate reader, Tecan Spark (Tecan Group Ltd., Männedorf, CH, Switzerland). Data are presented as the percentage of metabolic activity of control cells stimulated with vehicle, or as an IC50 value (mean ± SD) from three independent experiments, each conducted in triplicate (for screening) or duplicate (for IC50 determination). IC50 values were calculated using a non-linear regression model and with Graph Pad Prism 9 software.

A further data set has as its system MRSA (QA-11.2). The experiment in a line: MIC, broth microdilution. Particulars: Staphylococcus aureus. It counts as cell-based, S. aureus. The procedure:
(§2) For the determination of minimum inhibitory concentrations (MIC), the broth microdilution method was used in 96-well plate format, according to the guidelines of the Clinical and Laboratory Standards Institute and the recommendations of the European Committee on Antimicrobial Susceptibility Testing (EUCAST). The dilutions of the bacterial suspension of the specific bacterial strain, corresponding to the 0.5 McFarland turbidity standard, were prepared with […] Mueller–Hinton broth with TES (Thermo Fisher Scientific) to obtain an end inoculum of 10^5 CFU/mL. The compounds were dissolved in DMSO and mixed with the inoculum. […] The MIC was determined as the lowest concentration of antibiotic that prevented visible bacterial growth. Tetracycline was used as a positive control on each test plate.
On the technique in general: In broth dilution the organism is exposed to a series of concentrations in liquid medium.

In a further data set the test system is MRSA(QA-12.1). The data set can be described thus: MIC, broth microdilution. The data set is classed as cell-based, S. aureus. Particulars: Staphylococcus aureus. The procedure: as §2
Data set [12] has as its system MRSA (QA-11.7). The data set can be described thus: MIC, broth microdilution. Particulars: Staphylococcus aureus. It counts as cell-based, S. aureus. The procedure: as §2
Data set [13] has as its target T2, human topoisomerase IIα. The experiment in a line: human topoisomerase II alpha relaxation high-throughput assay (selectivity). The following applies: residual activity at 100 µM compound; mean ± SD, two independent experiments; read-out: Human TopoIIα (% RA at 100 µM). The data set is classed as biochemical. The procedure: For selectivity determination, a human topoisomerase II alpha relaxation high-throughput assay was used. The assay kits and black streptavidin-coated 96-well microtiter plates are available from Inspiralis (Norwich, UK). Two independent measurements were performed with an inhibitory concentration of 100 µM. Raw data were calculated as the mean ± SD percentage of the residual enzyme activity.

The target of another data set is T4, E. coli topoIV (Escherichia coli, UniProt P0AFI2).
T4 construct: purchased Inspiralis (Norwich, UK)
The data set can be described thus: topoIV relaxation inhibition assay (high-throughput plate assay). It counts as biochemical. The procedure: as §1

Data set [14] deals with VRE. The experiment in a line: MIC, broth microdilution. It counts as cell-based. Particulars: Enterococcus. The procedure: as §2
The next data set relates to A. baumannii. The data set can be described thus: MIC, broth microdilution. The data set is classed as cell-based. Particulars: Acinetobacter baumannii. The procedure: as §2
For data set [15], the system named is P. aeruginosa RDK 184. The data set can be described thus: MIC, broth microdilution. The data set is classed as cell-based. Particulars: Pseudomonas aeruginosa. The procedure: as §2
Data set [16] has as its system E. coli (ATCC 25922). The data set can be described thus: MIC, broth microdilution. It counts as cell-based. The following applies: Escherichia coli, ATCC25922. The procedure:
as §2

The subject of data set [17] is E. faecalis RDK 057. The data set can be described thus: MIC, broth microdilution. The data set is classed as cell-based. The following applies: Enterococcus faecalis, RDK057. The procedure: as §2
For data set [18], the system named is E. coli N43 (CGSC# 5583). The experiment in a line: MIC, broth microdilution. Particulars: Escherichia coli. It counts as cell-based. The procedure:
as §2

Another data set relates to K. pneumoniae. The data set can be described thus: MIC, broth microdilution. It counts as cell-based. The following applies: Klebsiella pneumoniae. The procedure: as §2
The test system of a further data set is E. coli ESBL QA-11.3. The experiment in a line: MIC, broth microdilution. The data set is classed as cell-based. The following applies: Escherichia coli, ESBLQA11.3. The procedure:
as §2

Data set [19] has as its system S. aureus (ATCC 29213). The data set can be described thus: MIC, broth microdilution. It counts as cell-based. The following applies: Staphylococcus aureus, ATCC29213. The procedure: as §2
The test system of data set [20] is E. coli D22. The data set can be described thus: MIC, broth microdilution. The data set is classed as cell-based. Particulars: Escherichia coli, D22. The procedure: as §2
The target of the next data set is T5, S. aureus topoIV (Staphylococcus aureus, UniProt P0C1U9).
T5 construct: purchased Inspiralis (Norwich, UK)
The data set can be described thus: biochemical. Particulars: relaxation inhibition; mean of two independent measurements ± SD. The procedure: as §1

In data set [21] the target is T1, S. aureus DNA gyrase. The experiment in a line: biochemical. Particulars: supercoiling inhibition; mean of two independent measurements ± SD. The procedure:
as §1

Structures are written as SMILES. Converted amounts (≈) assume the structure as drawn. Read-outs that look alike come from different tables or passages of the source. Bounds are passed on as bounds.

Broadly, the IC50 is the concentration that inhibits the measured activity by half. The term MIC denotes the smallest concentration in the dilution series that meets the test's criterion for growth inhibition.

T1 sequence (P20831 whole entry): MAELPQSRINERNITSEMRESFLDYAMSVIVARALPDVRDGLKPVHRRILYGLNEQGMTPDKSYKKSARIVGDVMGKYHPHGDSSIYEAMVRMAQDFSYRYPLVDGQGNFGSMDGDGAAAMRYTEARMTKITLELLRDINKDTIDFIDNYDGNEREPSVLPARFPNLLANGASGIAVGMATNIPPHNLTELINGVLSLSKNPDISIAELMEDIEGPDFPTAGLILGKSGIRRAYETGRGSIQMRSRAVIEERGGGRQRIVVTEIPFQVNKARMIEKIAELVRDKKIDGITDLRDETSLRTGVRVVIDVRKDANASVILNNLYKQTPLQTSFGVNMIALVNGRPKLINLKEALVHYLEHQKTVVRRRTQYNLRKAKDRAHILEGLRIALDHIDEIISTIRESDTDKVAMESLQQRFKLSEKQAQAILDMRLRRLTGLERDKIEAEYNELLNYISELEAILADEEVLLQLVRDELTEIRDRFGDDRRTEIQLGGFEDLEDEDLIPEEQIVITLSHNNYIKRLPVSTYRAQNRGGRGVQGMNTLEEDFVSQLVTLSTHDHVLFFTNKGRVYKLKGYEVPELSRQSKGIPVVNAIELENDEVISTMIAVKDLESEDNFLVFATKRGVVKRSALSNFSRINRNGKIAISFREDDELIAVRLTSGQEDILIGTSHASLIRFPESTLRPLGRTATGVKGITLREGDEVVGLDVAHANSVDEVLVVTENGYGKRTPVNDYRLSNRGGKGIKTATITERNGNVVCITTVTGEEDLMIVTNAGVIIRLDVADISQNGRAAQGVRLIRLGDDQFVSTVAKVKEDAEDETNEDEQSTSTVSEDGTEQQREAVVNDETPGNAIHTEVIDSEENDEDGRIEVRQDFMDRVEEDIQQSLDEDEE
T1 sequence (P0A0K8 whole entry partner): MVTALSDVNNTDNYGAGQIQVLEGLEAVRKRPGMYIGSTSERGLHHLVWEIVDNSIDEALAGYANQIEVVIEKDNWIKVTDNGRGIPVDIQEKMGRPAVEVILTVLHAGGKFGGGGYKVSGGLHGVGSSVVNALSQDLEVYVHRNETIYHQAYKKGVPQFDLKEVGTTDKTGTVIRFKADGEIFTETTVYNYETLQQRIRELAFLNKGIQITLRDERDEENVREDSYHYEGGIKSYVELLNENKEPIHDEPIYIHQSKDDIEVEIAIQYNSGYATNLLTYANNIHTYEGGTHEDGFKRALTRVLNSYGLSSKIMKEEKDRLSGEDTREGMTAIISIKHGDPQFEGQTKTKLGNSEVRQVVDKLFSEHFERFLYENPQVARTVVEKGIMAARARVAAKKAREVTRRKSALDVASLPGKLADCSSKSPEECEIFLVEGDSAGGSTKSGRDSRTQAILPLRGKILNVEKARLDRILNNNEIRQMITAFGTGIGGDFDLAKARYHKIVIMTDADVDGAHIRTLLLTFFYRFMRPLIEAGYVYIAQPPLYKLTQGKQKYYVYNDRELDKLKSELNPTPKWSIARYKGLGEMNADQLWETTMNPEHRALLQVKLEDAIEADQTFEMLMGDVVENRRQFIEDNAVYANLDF
T3 sequence (P0AES4 whole entry): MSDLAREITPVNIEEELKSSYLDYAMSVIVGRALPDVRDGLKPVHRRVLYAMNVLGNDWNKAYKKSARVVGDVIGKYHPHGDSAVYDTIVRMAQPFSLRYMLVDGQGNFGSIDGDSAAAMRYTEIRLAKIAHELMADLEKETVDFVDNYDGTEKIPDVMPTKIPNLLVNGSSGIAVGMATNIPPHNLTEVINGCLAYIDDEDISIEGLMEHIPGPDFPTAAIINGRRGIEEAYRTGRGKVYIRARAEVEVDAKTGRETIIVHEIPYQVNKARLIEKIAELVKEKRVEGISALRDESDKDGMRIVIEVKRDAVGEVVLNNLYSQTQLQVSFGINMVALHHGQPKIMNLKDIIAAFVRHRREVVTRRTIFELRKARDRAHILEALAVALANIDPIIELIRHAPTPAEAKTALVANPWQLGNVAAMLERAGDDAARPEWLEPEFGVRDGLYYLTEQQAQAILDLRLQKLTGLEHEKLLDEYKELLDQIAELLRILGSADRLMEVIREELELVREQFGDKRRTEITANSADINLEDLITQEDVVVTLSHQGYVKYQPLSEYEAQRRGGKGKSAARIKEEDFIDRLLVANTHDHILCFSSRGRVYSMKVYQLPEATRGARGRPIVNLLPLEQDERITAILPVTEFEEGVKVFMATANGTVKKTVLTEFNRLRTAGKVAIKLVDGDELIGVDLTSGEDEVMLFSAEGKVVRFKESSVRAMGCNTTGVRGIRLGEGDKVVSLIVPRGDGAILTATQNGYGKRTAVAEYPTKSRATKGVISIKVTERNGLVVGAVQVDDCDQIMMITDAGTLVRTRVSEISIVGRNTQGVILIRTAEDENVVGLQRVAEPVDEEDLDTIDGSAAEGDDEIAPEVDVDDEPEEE

As for `COc1ccc2nccc(CCN3CCC(NCc4ccc(Br)cc4)CC3)c2n1` [Compound 1], the “MIC E. faecalis RDK 057” value with E. faecalis RDK 057 [1] was 0.5 µg/mL (≈ 1.1 µM). Besides, the “MIC P. aeruginosa RDK 184” value with P. aeruginosa RDK 184 [2] is 128 µg/mL (≈ 281 µM). Moreover, in the data set with E. coli (ATCC 25922) [3], the “MIC E. coli (ATCC 25922)” value was 2 µg/mL (≈ 4.39 µM). The “MIC VRE” value in the data set with VRE [4] is 2 µg/mL (≈ 4.39 µM). Further, the IC50 on S. aureus DNA gyrase [5] is 0.026 ± 0.01 µM. Also, the “MIC S. aureus (ATCC 29213)” value in the data set on S. aureus (ATCC 29213) [6] is 0.125 µg/mL (≈ 0.274 µM). Further, in the data set with E. coli N43 (CGSC# 5583) [7], the “MIC E. coli N43 (CGSC# 5583)” value was 0.125 µg/mL (≈ 0.274 µM). The “Human TopoIIα (% RA at 100 µM)” value on human topoisomerase IIα [8] was 98 ± 3%. Besides, in the data set with E. coli D22 [9], the “MIC E. coli D22” value was 0.125 µg/mL (≈ 0.274 µM). Besides, in the data set on MRSA (QA-11.7) [10], the “MIC MRSA (QA-11.7)” value is reported as 0.5 µg/mL (≈ 1.1 µM).

Take `COc1ccc2nccc(CCN3CCC(NCc4ccc(Br)c(C(F)(F)F)c4)CC3)c2n1` [Compound 12, N-(4-Bromo-3-(trifluoromethyl)benzyl)-1-(2-(6-methoxy-1,5-naphthyridin-4-yl)ethyl)piperidin-4-amine]: the 50% inhibitory concentration (IC50) was 0.084 ± 0.02 µM at E. coli DNA gyrase, 0.023 ± 0.006 µM at E. coli topoIV, 0.345 ± 0.025 µM against S. aureus topoIV and 0.062 µM against S. aureus DNA gyrase [21]. Also, half-maximal inhibition in data set [11] (IC50 at 72 h) required 12 ± 1.86 µM. In addition, the minimal inhibitory concentration (MIC) amounted to 0.161 µM with MRSA (QA-11.2) (read-out: MIC (μM) MRSA (QA-11.2)); 0.063 µg/mL in the data set with MRSA (QA-11.2) (read-out: MIC MRSA (QA-11.2)); 0.082 µM in the data set on MRSA(QA-12.1) (Table S3, read-out: MIC (μM) MRSA(QA-12.1)); 0.032 µg/mL in the data set on MRSA(QA-12.1) (strain resistant to cefoxitin, gentamicin, kanamycin, rifampicin, streptomycin, sulfamethoxazole, tetracycline, read-out: MIC MRSA(QA-12.1)); 0.161 µM with MRSA (QA-11.7) [12] (read-out: MIC (μM) MRSA (QA-11.7)); 0.063 µg/mL in the data set on MRSA (QA-11.7) [12] (strain resistant to cefoxitin, ciprofloxacin, clindamycin, erythromycin, tetracycline, thiamulin, trimethoprim, read-out: MIC MRSA (QA-11.7)). Also, the MIC was 0.64 µM in the data set with VRE [14] (Table S3, read-out: MIC (μM) VRE); 0.25 µg/mL in the data set on VRE [14] (read-out: MIC VRE); 5.12 µM in the data set on A. baumannii (Table S3, read-out: MIC (μM) A. baumannii); 2 µg/mL with A. baumannii (read-out: MIC A. baumannii); > 328 µM with P. aeruginosa RDK 184 [15] (RDK184, 20 h, Table S3, read-out: MIC (μM) P. aeruginosa RDK 184); > 128 µg/mL in the data set on P. aeruginosa RDK 184 [15] (RDK184, read-out: MIC P. aeruginosa RDK 184). The minimum inhibitory concentration (MIC) in the data set on E. coli (ATCC 25922) [16] (Table S3, read-out: MIC (μM) E. coli (ATCC 25922)) was determined as 10.2 µM; in the data set on E. coli (ATCC 25922) [16] (read-out: MIC E. coli (ATCC 25922)) it was 4 µg/mL; in the data set on E. faecalis RDK 057 [17] (Table S3, read-out: MIC (μM) E. faecalis DRK 057), 1.28 µM; in the data set on E. faecalis RDK 057 [17] (read-out: MIC E. faecalis RDK 057), 0.5 µg/mL; with E. coli N43 (CGSC# 5583) [18] (read-out: MIC (μM) E. coli N43), 0.161 µM; with E. coli N43 (CGSC# 5583) [18] (read-out: MIC E. coli N43 (CGSC# 5583)), 0.063 µg/mL. The minimum inhibitory concentration (MIC) worked out at 41 µM with K. pneumoniae (Table S3, read-out: MIC (μM) K. pneumoniae); 16 µg/mL with K. pneumoniae (read-out: MIC K. pneumoniae); 10.2 µM in the data set on E. coli ESBL QA-11.3 (Table S3, read-out: MIC (μM) E. coli ESBL QA:11.3); 4 µg/mL with E. coli ESBL QA-11.3 (read-out: MIC E. coli ESBL QA-11.3); 0.082 µM with S. aureus (ATCC 29213) [19] (Table S3, read-out: MIC (μM) S. aureus (ATCC 29213)); 0.032 µg/mL with S. aureus (ATCC 29213) [19] (read-out: MIC S. aureus (ATCC 29213)). Further, the MIC in the data set with E. coli D22 [20] (Table S3, lpxC mutation, read-out: MIC (μM) E. coli D22) was 0.64 µM; with E. coli D22 [20] (lpxC mutation that increases membrane permeability, read-out: MIC E. coli D22) it was 0.25 µg/mL. Also, the remaining activity at 100 µM on human topoisomerase IIα [13] was determined as 102%.

The values above are taken from publication PMC10215804, “Exploring Alternative Pathways to Target Bacterial Type II Topoisomerases Using NBTI Antibacterials: Beyond Halogen-Bonding Interactions” (Antibiotics, 2023).
